Data published in US6387329B1, “Use of an array of polymeric sensors of varying thickness for detecting analytes in fluids” (California Institute of Technology, priority 1998, dated 2002).

Tested on: cytochrome P-450 aniline p-hydroxylation
Test: inhibitory action of alcohols on cytochrome P-450 aniline p-hydroxylation (data of Cohen and Mannering)
Format: biochemical
Conditions: versus the electronic nose QSAR and another QSAR on the cytochrome P-450 system
Source text: To test the ability of the “electronic nose” to identify molecules of interest having a particular biological activity selected from a library of molecules of interest, a quantitative structure-activity relationship (QSAR) was used to predict the inhibitory action of a series of alcohols on cytochrome P-450 aniline p-hydroxylation.
The values are expressed as PI50, where I50 is the concentration of the alcohol (in mM) at which the activity of the enzyme is 50% inhibited, and PI50 is the negative logarithm of I50. More positive numbers correspond to more strongly inhibiting alcohols.

OCc1ccccc1 [benzyl alcohol]
activity compared with QSAR prediction: higher activity than is predicted
